One data set relates to IL-6. Description: Plasma cytokine ELISA after intraperitoneal injection. Format: in vivo, mice. As to conditions: 0.5, 2, 8, and 16 mg/kg intraperitoneally, after 1 hour.
Data set [1] can be described thus: Body weight change during intraperitoneal administration. Format: in vivo, mice. The following applies: 16 mg/kg intraperitoneal, 14 weeks (FIG. 10C).
The next data set relates to TNF-α. As to conditions: 0.5, 2, 8, and 16 mg/kg intraperitoneally, after 1 hour.
For data set [2], the system named is cortical nerve cells. Put plainly: Mechanism of action: receptor-mediated endocytosis, p62/LC3 western blot with Baf-A1. Format: cell-based, ICR mouse. The following applies: inhibitor administered alone (500 μM MβCD or 2 μM CP) with Baf-A1 + 20 μM peptide (FIG. 9B). The procedure: (§1) In the pre-preparation process, 10-12 days after cell culture, the culture medium of the cerebral cortex nerve cells was changed to a minimum essential medium (MEM, Gibco, USA) without adding serum, and then was treated with N,N,N′,N′-tetrakis(2-pyridylmethyl)ethylene-diamine (TPEN, 2 μM, Sigma, USA), which is a zinc chelator, 50 μM chloroquine (CQ), 100 nM bafilomycin A-1 (Baf-A1), 500 μM methyl-beta-cyclodextrin (MβCD), and 2 μM chloropromazine (CP). Here, the MβCD is a caveolin-mediated endocytosis inhibitor, and CP is a clathrin-mediated endocytosis inhibitor. In addition, in the cell line experiments, the medium was changed to MEM according to the purpose of the experiments and was then treated with 40 μM chloroquine (CQ) and 100 nM bafilomycin A-1 (Baf-A1). During the pre-preparation process, the medium was treated with alloferon D-form peptides (0.2, 2, or 20 μM), free zinc (25 μM), TPEN (1 μM), and the like separately or together according to the purpose of each experiment.
Since the protein cannot pass through the cell membrane, the present inventors thought that the alloferon D-form peptides would be introduced through an endocytosis process. Thus, the present inventors investigated whether the alloferon D-form peptides act through a receptor-mediated endocytosis process. […]

Data set [3] deals with cortical nerve cells. Description: Lysotracker staining (lysosomal pH). Format: cell-based, ICR mouse. From the text:
The cerebral cortex nerve cells of the mice were obtained by extracting the cerebrum from ICR mouse embryos of 13-14 day gestation. 6-7 hemispheres per culture dish were inoculated on 24-well culture dishes or 6-well culture dishes (SPL Life Science, South Korea) coated with 0.01% poly-D-lysine (Sigma, USA) prepared in advance. […]
Since it was confirmed through FIG. 2 that alloferon may promote the autophagic flux, whether the alloferon D-form peptides are involved in pH change in the lysosome was confirmed through lysotracker staining. […] It means that the stronger the fluorescence intensity, the lower the pH, and the weaker the fluorescence intensity, the higher the pH. It was confirmed that the pH in the lysosome was lowered by only the treatment with the alloferon D-form peptides compared to the control (FIG. 3A), and when treatment with 50 μM CQ was performed, the fluorescence intensity decreased compared to the control, and this was recovered by the treatment with the alloferon D-form peptides and zinc (FIG. 3B). […]

Data set [4] concerns β-amyloid aggregates (Aβ aggregates). Put plainly: β-amyloid 1-42 protein aggregates in transfected 293T cells. Format: cell-based. The procedure: (§2) In addition, in this study, H4 cell line (GL-H4) and 293T cell line in which the GFP-LC3 plasmid was permanently infected were used. As a cell culture medium, 10% fetal bovine serum (Hyclone, USA) and a mixture solution of antibiotics and antifungal agents (WellGene, South Korea) were added to Minimum Essential Medium (MEM, WellGene) and incubated in a cell incubator in which the conditions of 37° C. and 5% CO2 were maintained.
as §1
Subsequently, the present inventors investigated whether alloferon may dissolve the β-amyloid aggregates (Aβ aggregates) generated after the transient transfection of β-amyloid 1-42 (Aβ1-42) into 293T cell lines. To this end, EGFP-tagged 1-42Aβ (pEGFP-C1-Abeta 1-42) DNA was transiently transfected into 293T cell lines using Lipofectamine2000. For cell observation, GFP signals were analyzed through a fluorescence microscope, and ImageJ was used for size and number analysis of GFP-positive aggregates. pEGFP-C1-Abeta 1-42 DNA was purchased from Addgene. Western blot analysis was performed in the same manner as in Example 5, except that anti-6E10-antibodies (Biolegend, USA) were used as the antibodies (FIG. 7).

In data set [5] the test system is Huntington protein aggregates (Htt aggregates). Put plainly: Mutant Huntington protein aggregates in transfected 293T cells. Format: cell-based. How it is done: as §2, §1
Subsequently, the present inventors investigated whether alloferon may dissolve Huntington protein aggregates (Htt aggregates) generated after the transient transfection of mutant Huntington protein (mt-Htt) into 293T cell lines. To this end, GFP-tagged Huntington Q74 (GFP-mHttQ74) DNA was transiently transfected into 293T cell lines using Lipofectamine2000. For cell observation, GFP signals were analyzed through a fluorescence microscope, and ImageJ was used for size and number analysis of GFP-positive aggregates (FIG. 8A). GFP-mHttQ74 DNA was provided by Dr. David C. Rubinsztein of the University of Cambridge, England (Park et al., Neurobiol. Dis. 42: 242-251, 2011). […]

Another data set relates to H4 cell line (GL-H4). Put plainly: LC3-GFP puncta, autophagic flux blocked by chloroquine (fluorescence microscopy). Format: cell-based. The following applies: 50 μM CQ alone. The procedure:
In addition, in this study, H4 cell line (GL-H4) and 293T cell line in which the GFP-LC3 plasmid was permanently infected were used. As a cell culture medium, 10% fetal bovine serum (Hyclone, USA) and a mixture solution of antibiotics and antifungal agents ([…], South Korea) were added to Minimum Essential Medium ([…]) and incubated in a cell incubator in which the conditions of 37° C. and 5% CO2 were maintained. […] Here, the MβCD is a caveolin-mediated endocytosis inhibitor, and CP is a clathrin-mediated endocytosis inhibitor. In addition, in the cell line experiments, the medium was changed to MEM according to the purpose of the experiments and was then treated with 40 μM chloroquine (CQ) and 100 nM bafilomycin A-1 (Baf-A1). During the pre-preparation process, the medium was treated with alloferon D-form peptides (0.2, 2, or 20 μM), free zinc (25 μM), TPEN (1 μM), and the like separately or together according to the purpose of each experiment. […] Protein quantification was performed using BCA protein assay kit (Pierce Biotechnology, USA). Then, 5× sample buffer (300 mM Tris, pH 6.8, 10% SDS, 50% glycerol, 0.1% BPB, 2.5% mercaptoethanol, and 100 mM DTT) was mixed with a quantified sample and denatured at 95° C. for 5 minutes to prepare the sample. […]

Data set [6] in a line: In vitro plasma stability analysis (LC / mass spectrometry).
Method: In vitro plasma stability analysis was performed in order to compare the stability of L-form peptides and D-form peptides of the alloferon in the plasma of mice. […] The 10 μM alloferon L-form and D-form peptides were put into 100 μL of plasma, respectively, and then allowed to stand at 37° C. for 0, 5, 10, 30, 60, and 90 minutes. Thereafter, 500 μL of cold methanol was added thereto to precipitate proteins, and the proteins were lyophilized, followed by liquid chromatography and protein mass spectrometry.
[7] abbreviates: treatment alone, without Baf-A1.
Where [8] appears, read: 100 nM bafilomycin A1 alone, 12 hours.

Square brackets hold non-standard residues; d marks the D form. Ends that are not written are not given here. Peptide text beside a SMILES is read from it.

Method for IL-6: (§3) Specifically, the alloferon D-form peptides were intraperitoneally injected at 0.5, 2, 8, and 16 mg/kg, and after 1 hour, blood was collected from the retro-orbital plexus of the mice. The collected blood was centrifuged at 2,000 g at 4° C. for 20 minutes using a centrifuge, and then only the supernatant was taken to obtain plasma. Thereafter, an experiment was performed using TNF-α and IL-6 Elisa kit (RayBiotech, USA). Specifically, 100 μL of plasma sample was put into a 96-well microplate coated with each of anti-TNF-α and anti-IL-6 antibodies, and then left while shaking at room temperature for 2 hours and 30 minutes. Thereafter, the sample was discarded, washed 4 times with a wash buffer provided from the kit, and then 100 μL of the biotin-binding secondary antibodies was reacted for 1 hour. Then, it was washed 4 times with a washing buffer, 100 μL of streptavidin solution was added thereto, left while shaking at room temperature for 45 minutes, and washed again 4 times with a washing buffer. After 100 μL of TMB One-step substrate was added thereto and left for 30 minutes, 50 μL of a reaction termination solution was added thereto, and then 450 nm absorbance was measured by a spectrophotometer.
Method for TNF-α: as §3

For `CC(C)[C@@H](NC(=O)CNC(=O)[C@H](N)Cc1c[nH]cn1)C(=O)N[C@H](CO)C(=O)NCC(=O)N[C@H](Cc1c[nH]cn1)C(=O)NCC(=O)N[C@H](CCC(N)=O)C(=O)N[C@H](Cc1c[nH]cn1)C(=O)NCC(=O)N[C@@H](C(=O)N[C@H](Cc1c[nH]cn1)C(=O)NCC(=O)O)C(C)C` [alloferon D-form peptides] (H-[dH]G[dV][dS]G[dH]G[dQ][dH]G[dV][dH]G-OH; N-terminus and C-terminus assumed), in the data set with IL-6, the “changes in IL-6 in plasma compared to the control” value is given as “not observed”. Further, the “amount of changes in the body weights of mice” value in [1] was “did not change”. Moreover, in the data set with TNF-α, the “changes in TNF-α in plasma compared to the control” value is “not observed”.

As to methyl-beta-cyclodextrin [MβCD], the “effect of the alloferon D-form peptides on autophagic flux” value in the data set on cortical nerve cells [2] is “not changed”.

Take `[Zn]` [zinc]: the “lysotracker fluorescence intensity decreased by 50 μM CQ” value with cortical nerve cells [3] (20 μM peptide or 25 μM zinc + 50 μM chloroquine, 4 hours (FIG. 3B)) was “recovered”. For the same compound, in data set [4] (100 nM bafilomycin A1 + 2 or 20 μM peptide or 25 μM zinc, 12 hours (FIG. 7A)), the “β-amyloid protein aggregates increased by Baf-A1 (fluorescence)” value is listed as “decreased”. Besides, in [4] (100 nM bafilomycin A1 + peptide or 25 μM zinc, 12 hours (FIG. 7B)), the “β-amyloid aggregates increased by Baf-A1 (western blot)” value is “decreased”. Besides, in data set [4] (setting [7]), the “β-amyloid protein aggregates compared to the control group” value is “no change”. Also, the “Huntington protein aggregates increased by Baf-A1” value in data set [5] (100 nM bafilomycin A1 + 20 μM peptide or 25 μM zinc, 12 hours (FIG. 8)) was “decreased”. Also, in data set [5] (setting [7]), the “Huntington protein aggregates compared to the control” value is reported as “no change”.

With `CO/C1=C\C(C)=C\[C@@H](C)[C@@H](O)[C@@H](C)C/C(C)=C/C=C/[C@H](OC)[C@@H]([C@@H](C)[C@@H](O)[C@H](C)[C@@]2(O)C[C@@H](O)[C@H](C)[C@@H](C(C)C)O2)OC1=O` [Baf-A1, bafilomycin A-1], in [4] (setting [8]), the β-amyloid protein aggregates result is given as “increased”. The Huntington protein aggregates result in data set [5] (setting [8]) was “increased”.

In the case of `CN(C)CCCN1c2ccccc2Sc2ccc(Cl)cc21` [CP, chloropromazine], in the data set on cortical nerve cells [2], the “effect of the alloferon D-form peptides on autophagic flux” value is “not changed”.

On to `CCN(CC)CCCC(C)Nc1ccnc2cc(Cl)ccc12` (centres unmarked) [CQ, chloroquine], for which the “lysotracker fluorescence intensity compared to the control” value in the data set on cortical nerve cells [3] (50 μM CQ alone, 4 hours) is on record as “decreased”. Moreover, the “number and size of LC3 puncta” value in the data set with H4 cell line (GL-H4) is recorded as “significantly increased”.

Consider “HGVSGHGQHGVHG [alloferon L-form peptides]”, for which, in data set [6] (mouse plasma, 10 μM, 37° C., 0-90 minutes), the “degradation / stability in plasma” value is listed as “degraded from an early time in plasma”. For the same compound, the half-life (usually the time needed for the level to fall by half in the phase considered) in data set [6] (mouse, plasma) is 51.8 min.

Values taken from patent publication US20230365626A1, “Alloferon Peptide and Method Using the Same” (Industry Academy Cooperation Foundation of Sejong University, priority 2020, published 2023).
